Where “and” joins values, the source holds several entries; their conditions need not be identical. Equal values may be shown once.
Test system: RET-altered solid tumors
Test: Phase 1 trial: anti-tumor efficacy (RECIST 1.1)
Format: in vivo, human
Experimental: Radiologic tumor assessments were conducted by computed tomography (CT) or magnetic resonance imaging (MRI) of brain, chest, abdomen, and pelvis at baseline, 4 weeks for the first tumor assessment, then every 8 weeks (± 7 days) for 1 year, and every 12 weeks (± 7 days) thereafter. MTC patients were longitudinally monitored for serum calcitonin and carcinoembryonic antigen (CEA) levels.

[1] = All patients, 160 mg BID (n = 95)
[2] = All patients, 200 mg BID (n = 10)
[3] = All patients, all doses (n = 116)
[4] = Previously treated, 160 mg BID (n = 58)
[5] = Previously treated, 200 mg BID (n = 8)
[6] = Previously treated, all doses (n = 76)
[7] = RP2D 160 mg BID, MTC, all (n = 23)
[8] = RP2D 160 mg BID, NSCLC, all (n = 64)
[9] = RP2D 160 mg BID, PTC, all (n = 7)
[10] = RP2D, MTC, previously treated (n = 15)
[11] = RP2D, MTC, treatment-naïve (n = 8)
[12] = RP2D, NSCLC, previously treated (n = 36)
[13] = RP2D, NSCLC, treatment-naïve (n = 28)
[14] = RP2D, PTC, previously treated (n = 6)

## COc1ccc(CN2C3CC2CN(c2ccc(-c4cc(N5CC(C)(O)C5)cn5ncc(C#N)c45)cn2)C3)cn1 [SY-5007, 6-(3-hydroxy-3-methylazetidin-1-yl)-4-(6-(6-((6-methoxypyridin-3-yl)methyl)-3,6-diazabicyclo[3.1.1]heptan-3-yl)pyridin-3-yl)pyrazolo[1,5-a]pyridine-3-carbonitrile]
111/116
  Patients with target tumor shrinkage: 95.7%
All patients, 20 mg QD to 120 mg BID cohorts
  Progressive disease: 0 (0.0) n (%)
All patients, 20 mg QD to 120 mg BID cohorts, 20 mg once daily
  DCR (95% CI): 100.0 (2.5–100.0) %
All patients, 20 mg QD to 120 mg BID cohorts, 20 mg twice daily
  Median TTR (95% CI): 6.73 (NE-NE) months
All patients, 20 mg QD to 120 mg BID cohorts, 40 mg twice daily
  DCR (95% CI): 100.0 (29.2–100.0) %
All patients, 20 mg QD to 120 mg BID cohorts, 120 mg twice daily
  Median TTR (95% CI): 8.37 (1.18-NE) months
[1]
  DCR (95% CI): 94.7 (88.1–98.3) %
  Median DoR (95% CI): 13.0 (12.8-NE) months
  Median PFS (95% CI): 15.4 (13.8-NE) months
  Median TTR (95% CI): 2.79 (2.75–4.63) months
  ORR (95% CI): 58.9 (48.4–68.9) %
  Partial response: 56 (58.9) n (%)
  Progressive disease: 5 (5.3) n (%)
  Stable disease: 34 (35.8) n (%)
[2]
  DCR (95% CI): 100.0 (69.2–100.0) %
  Median TTR (95% CI): 1.14 (0.91-NE) months
  ORR (95% CI): 60.0 (26.2–87.8) %
  Partial response: 6 (60.0) n (%)
  Progressive disease: 0 (0.0) n (%)
  Stable disease: 4 (40.0) n (%)
[3]
  DCR (95% CI): 95.7 (90.2–98.6) %
  Median DoR (95% CI): 19.9 months and 19.9 (12.8–NE) months
  Median PFS (95% CI): 21.1 months and 21.1 (13.8–NE) months
  Median TTR (95% CI): 2.82 (2.75–4.66) months
  ORR (95% CI): 57.8 (48.2–66.9) %
  Partial response: 67 (57.8) n (%)
  Progressive disease: 5 (4.3) n (%)
  Stable disease: 44 (37.9) n (%)
MTC at RP2D
  Estimated 12-month PFS rate: 85.2%
NSCLC at 160 mg BID
  Estimated 6-month PFS rate: 89.6%
  Estimated 12-month PFS rate: 67.5%
PTC at RP2D
  Estimated 12-month PFS rate: 100.0%
Previously treated, 20 mg QD (n = 1)
  Median PFS (95% CI): 4.83 (NE-NE) months
Previously treated, 20 mg QD to 120 mg BID cohorts
  Progressive disease: 0 (0.0) n (%)
Previously treated, 20 mg QD to 120 mg BID cohorts, 20 mg once daily
  DCR (95% CI): 100.0 (2.5–100.0) %
Previously treated, 20 mg QD to 120 mg BID cohorts, 20 mg twice daily
  Median TTR (95% CI): 6.73 (NE-NE) months
Previously treated, 20 mg QD to 120 mg BID cohorts, 40 mg twice daily
  DCR (95% CI): 100.0 (15.8–100.0) %
Previously treated, 20 mg QD to 120 mg BID cohorts, 80 mg twice daily
  DCR (95% CI): 100.0 (29.2–100.0) %
Previously treated, 20 mg QD to 120 mg BID cohorts, 120 mg twice daily
  Median TTR (95% CI): 8.37 (1.18-NE) months
[4]
  DCR (95% CI): 94.8 (85.6–98.9) %
  Median DoR (95% CI): 13.0 (9.23-NE) months
  Median PFS (95% CI): 15.4 (13.8-NE) months
  Median TTR (95% CI): 4.56 (2.75-NE) months
  ORR (95% CI): 51.7 (38.2–65.0) %
  Partial response: 30 (51.7) n (%)
  Progressive disease: 3 (5.2) n (%)
  Stable disease: 25 (43.1) n (%)
[5]
  DCR (95% CI): 100.0 (63.1–100.0) %
  Median TTR (95% CI): 3.15 (0.91-NE) months
  ORR (95% CI): 50.0 (15.7–84.3) %
  Partial response: 4 (50.0) n (%)
  Progressive disease: 0 (0.0) n (%)
  Stable disease: 4 (50.0) n (%)
[6]
  DCR (95% CI): 96.1 (88.9–99.2) %
  Median DoR (95% CI): 19.9 (12.8-NE) months
  Median TTR (95% CI): 4.63 (2.75-NE) months
  ORR (95% CI): 51.3 (39.6–63.0) %
  Partial response: 39 (51.3) n (%)
  Progressive disease: 3 (3.9) n (%)
  Stable disease: 34 (44.7) n (%)
RET fusion-positive NSCLC at 160 mg BID
  Patients with progression or death: 26.6%
[7]
  DCR (95% CI): 91.3 (72.0-98.9) %
  Median TTR (95% CI): 4.66 (2.75-NE) months
  ORR (95% CI): 52.2 (30.6-73.2) %
  Partial response: 12 (52.2) n (%)
  Progressive disease: 2 (8.7) n (%)
  Stable disease: 9 (39.1) n (%)
[8]
  DCR (95% CI): 96.9 (89.2-99.6) %
  Median DoR (95% CI): 13.0 months and 13.0 (9.26-NE) months
  Median PFS (95% CI): 15.4 months and 15.4 (10.1-NE) months
  Median TTR (95% CI): 2.75 (1.01-2.89) months
  ORR (95% CI): 64.1 (51.1-75.7) %
  Partial response: 41 (64.1) n (%)
  Progressive disease: 2 (3.1) n (%)
  Stable disease: 21 (32.8) n (%)
[9]
  DCR (95% CI): 100.0 (59.0-100.0) %
  ORR (95% CI): 42.9 (9.9-81.6) %
  Partial response: 3 (42.9) n (%)
  Progressive disease: 0 (0.0) n (%)
  Stable disease: 4 (57.1) n (%)
[10]
  DCR (95% CI): 100.0 (78.2-100.0) %
  ORR (95% CI): 40.0 (16.3-67.7) %
  Partial response: 6 (40.0) n (%)
  Progressive disease: 0 (0.0) n (%)
  Stable disease: 9 (60.0) n (%)
[11]
  DCR (95% CI): 75.0 (34.9-96.8) %
  Median TTR (95% CI): 2.75 (0.85-NE) months
  ORR (95% CI): 75.0 (34.9-96.8) %
  Partial response: 6 (75.0) n (%)
  Progressive disease: 2 (25.0) n (%)
  Stable disease: 0 (0.0) n (%)
[12]
  DCR (95% CI): 94.4 (81.3-99.3) %
  Median DoR (95% CI): 13.0 (9.20-NE) months
  Median PFS (95% CI): 13.8 (10.1-NE) months
  Median TTR (95% CI): 2.75 (0.98-NE) months
  ORR (95% CI): 58.3 (40.8-74.5) %
  Partial response: 21 (58.3) n (%)
  Progressive disease: 2 (5.6) n (%)
  Stable disease: 13 (36.1) n (%)
[13]
  DCR (95% CI): 100.0 (87.7-100.0) %
  Median DoR (95% CI): 14.5 (9.26-NE) months
  Median PFS (95% CI): 15.5 (9.23-NE) months
  Median TTR (95% CI): 1.11 (0.91-3.15) months
  ORR (95% CI): 71.4 (51.3-86.8) %
  Partial response: 20 (71.4) n (%)
  Progressive disease: 0 (0.0) n (%)
  Stable disease: 8 (28.6) n (%)
[14]
  DCR (95% CI): 100.0 (54.1-100.0) %
  ORR (95% CI): 50.0 (11.8-88.2) %
  Partial response: 3 (50.0) n (%)
  Progressive disease: 0 (0.0) n (%)
  Stable disease: 3 (50.0) n (%)
RP2D, PTC, treatment-naïve (n = 1)
  DCR (95% CI): 100.0 (2.5-100.0) %
